According to BindingDB's records for doi:10.1111/j.1747-0285.2012.01362.x (Washington University, 2012):

Target: T1, PhoP (Salmonella enterica I, UniProt A6XC03)
T1 sequence (A6XC03 whole entry): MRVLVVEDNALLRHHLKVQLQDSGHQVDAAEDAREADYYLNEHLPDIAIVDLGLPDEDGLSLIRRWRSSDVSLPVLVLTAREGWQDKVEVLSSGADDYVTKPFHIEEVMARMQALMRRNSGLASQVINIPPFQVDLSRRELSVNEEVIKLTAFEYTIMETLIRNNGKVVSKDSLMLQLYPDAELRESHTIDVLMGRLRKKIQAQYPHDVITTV
Experiment: Inhibition Assay
Excerpt: Inhibition of a protein-protein activity by EMSA assay.

SMILES | IC50 [µM]
N#Cc1ccc(OC(=O)c2ccc(NC(=N)N)cc2)cc1 [NSC168197, 8] | 285
c1ccc(C[n+]2cccc(-c3cc4ccccc4[nH]3)c2)cc1 [NSC118806, 7] | 109
CN(C)CCC(=O)C1(O)CCC2C3CC=C4CC(O)CCC4(C)C3CCC21C (stereo not drawn) [NSC48630, 3] | 3.6
CC12CCC(=O)C=C1CCC1C2CCC2(C)C(C(=O)COS(=O)(=O)c3ccc(Br)cc3)CCC12 (stereo not drawn) [NSC88915, 6] | 17
O=S(=O)(O)c1ccc2c(N=Nc3c(O)ccc4ccccc34)cccc2c1 [NSC45576, 2] | 12
O=C1c2ccccc2C(=O)c2c1ccc(C(=O)O)c2-c1cccc2ccccc12 [NSC9608, 1] | 11000
CC(C)c1ccc2c(c1)CCC1C(C)(CN)CCCC21C (stereo not drawn) [NSC65238, 5] | 20
O=C(C[n+]1ccc2ccccc2c1)c1ccc2ccc3ccccc3c2c1 [NSC35489, 4] | 14000
